Here are results for 21 molecules from patent publication US8716326B2, “Isoindolinone derivatives, preparation method thereof and a pharmaceutical composition comprising same” (Korea Research Institute of Chemical Technology, priority 2009, dated 2014).

The assay deals with Runx2. The assay is described as follows: Runx2 activity, 6xOSE2-Luc luciferase reporter in transfected C2C12 cells. It is filed as cell-based, Mouse. The following applies: 24 hrs; for fold induction at 2.5 µM / fold induction at 5 µM / fold induction at 10 µM / fold induction at 20 µM: Mus musculus, read-out: luciferase activity relative to control set as 1. Here is the method:
Mouse premyoblast cell (C2C12 cell) was transfected using receptor vector 6xOSE2-Luc in order to investigate the activity of the amide compound of the present invention on Runx2.
Specifically, the receptor vector 6xOSE2-Luc was prepared by inserting an artificial promoter linked by six tandem copies of the OSE2 (osteoblast specific element-2) into vector pGL3 (Promega; Madison, Wis., U.S.A.), and then, cloned into the C2C12 cell to be transfected (Kim et al., Journal of Cellular Biochemistry, 91: 1239-1247, 2004). The OSE2 is the binding site of Runx2 in the promoter of osteocalcin which is a bone marker.
C2C12 cells (5,000 cells/well) were plated onto 96-well plates using 10% FBS (fetal bovine serum; Hyclone)-containing DMEM (Dulbecco's Modified Eagle's Medium), the medium was replaced with 5% FBS-containing DMEM after 24 hrs, and treated with each of the amide compounds obtained in Examples 1 to 94 at various concentrations of 2.5 μM, 5.0 μM, 10 μM, and 20 μM. As a control, dimethyl sulfoxide (DMSO) vehicle was applied to the cell in an amount same as that of the amide compound. After 24 hrs, the luciferase activity in the cell lysate was measured by using Dual-Luciferase Reporter Assay System (Promega). The luciferase activity of the amide compound of the present invention was calculated as a value relative to that observed for the control which was set as 1.
A general note: In a reporter assay the amount or activity of a reporter protein is the signal.

Consider `COc1cc2c(c(Br)c1OC)CN(Cc1ccc(C(=O)Nc3ccccc3N)cc1)C2=O` [Example 1, N-(2-aminophenyl)-4-((4-bromo-5,6-dimethoxy-1-oxoisoindolin-2-yl)methyl)benzamide], for which the fold induction at 2.5 µM (2.5 μM) came to 21.4. Also, the fold induction at 5 µM (5.0 μM) stood at 26.2. Also, the fold induction at 10 µM (10 μM) was found to be 19.9. In addition, the fold induction at 20 µM (20 μM) was 15.8.

Regarding `COc1cc2c(c(-c3ccccc3)c1OC)CN(Cc1ccc(C(=O)Nc3ccccc3N)cc1)C2=O` [Example 2, N-(2-aminophenyl)-4-((5,6-dimethoxy-1-oxo-4-phenylisoindolin-2-yl)methyl)benzamide], the fold induction at 2.5 µM (2.5 μM) is 27.3. Moreover, the fold induction at 5 µM (5.0 μM) stood at 24.8. Also, the fold induction at 10 µM (10 μM) stood at 19.7. For the same molecule, where the note is “20 μM”, the fold induction at 20 µM was determined as 21.7.

In the case of `COc1cc2c(c(-c3cc(C)cc(C)c3)c1OC)CN(Cc1ccc(C(=O)Nc3ccccc3N)cc1)C2=O` [Example 3, N-(2-aminophenyl)-4-((5,6-dimethoxy-4-(3,5-dimethylphenyl)-1-oxoisoindolon-2-yl)methyl)benzamide], the “luciferase activity relative to control set as 1” value is, setting by setting: (2.5 μM) 25.2 fold; (5.0 μM) 25.7 fold; (10 μM) 22.7 fold; (20 μM) 18.7 fold.

Regarding `COc1cc2c(c(-c3cccnc3)c1OC)CN(Cc1ccc(C(=O)Nc3ccccc3N)cc1)C2=O` [Example 4, N-(2-aminophenyl)-4-((5,6-dimethoxy-1-oxo-4-(pyridin-3-yl)isoindolin-2-yl)methyl)benzamide], under “2.5 μM”, the fold induction at 2.5 µM was found to be 37. In addition, the fold induction at 5 µM (5.0 μM) was determined as 42.2. In addition, the fold induction at 10 µM (10 μM) turned out to be 36.6. The fold induction at 20 µM (20 μM) was determined as 36.7.

For the molecule `COc1ccc(-c2c3c(cc(OC)c2OC)C(=O)N(Cc2ccc(C(=O)Nc4ccccc4N)cc2)C3)cc1` [Example 5, N-(2-aminophenyl)-4-((5,6-dimethoxy-4-(4-methoxyphenyl)-1-oxoisoindolin-2-yl)methyl)benzamide], the fold induction at 2.5 µM (2.5 μM) amounted to 30.4. Also, the fold induction at 5 µM (5.0 μM) worked out at 25.3. Besides, the fold induction at 10 µM (10 μM) was 17.7. In addition, the fold induction at 20 µM (20 μM) amounted to 15.4.

As to `COc1cc2c(c(-c3ccc(C(F)(F)F)cc3)c1OC)CN(Cc1ccc(C(=O)Nc3ccccc3N)cc1)C2=O` [Example 6, N-(2-aminophenyl)-4-((4-(4-(trifluoromethyl)phenyl)-5,6-dimethoxy-1-oxoisoindolin-2-yl)methyl)benzamide], under “2.5 μM”, the fold induction at 2.5 µM is 14.2. Under “5.0 μM”, the fold induction at 5 µM came out at 18.3. Further, under “10 μM”, the fold induction at 10 µM came to 17.2. The fold induction at 20 µM (20 μM) is 9.3.

Consider `COc1ccc(-c2c3c(cc(OC)c2OC)C(=O)N(Cc2ccc(C(=O)Nc4ccccc4N)cc2)C3)cc1OC` [Example 7, N-(2-aminophenyl)-4-((5,6-dimethoxy-4-(3,4-dimethoxyphenyl)-1-oxoisoindolin-2-yl)methyl)benzamide], for which the fold induction at 2.5 µM (2.5 μM) came to 24.6. Where the note is “5.0 μM”, the fold induction at 5 µM was 26.9. In addition, the fold induction at 10 µM (10 μM) came out at 24.3. Also, where the note is “20 μM”, the fold induction at 20 µM was 18.4.

Take `Nc1ccccc1NC(=O)c1ccc(CN2Cc3c(Br)cccc3C2=O)cc1` [Example 9, N-(2-aminophenyl)-4-((4-bromo-1-oxoisoindolin-2-yl)methyl)benzamide]: for the setting “2.5 μM”, the fold induction at 2.5 µM is 12.4. For the same molecule, for the setting “5.0 μM”, the fold induction at 5 µM worked out at 11.3. Moreover, the fold induction at 10 µM (10 μM) stood at 9.7. The fold induction at 20 µM (20 μM) worked out at 9.4.

For `Nc1ccccc1NC(=O)c1ccc(CN2Cc3c(cccc3-c3cncnc3)C2=O)cc1` [Example 10, N-(2-aminophenyl)-4-((1-oxo-4-(pyrimidin-5-yl)isoindolin-2-yl)methyl)benzamide], the fold induction at 2.5 µM (2.5 μM) amounted to 7.9. The fold induction at 5 µM (5.0 μM) was determined as 11.6. Besides, the fold induction at 10 µM (10 μM) was 14.4. Further, the fold induction at 20 µM (20 μM) worked out at 16.7.

Regarding `Nc1ccccc1NC(=O)c1ccc(CN2Cc3c(cccc3-c3ccccc3)C2=O)cc1` [Example 11, N-(2-aminophenyl)-4-((1-oxo-4-phenylisoindolin-2-yl)methyl)benzamide], for the setting “2.5 μM”, the fold induction at 2.5 µM is 8.3. Also, for the setting “5.0 μM”, the fold induction at 5 µM is 12.3. In addition, the fold induction at 10 µM (10 μM) was 15.6. Further, the fold induction at 20 µM (20 μM) was 16.8.

Regarding `Cc1cc(C)cc(-c2cccc3c2CN(Cc2ccc(C(=O)Nc4ccccc4N)cc2)C3=O)c1` [Example 12, N-(2-aminophenyl)-4-((4-(3,5-dimethylphenyl)-1-oxoisoindolin-2-yl)methyl)benzamide], where the note is “2.5 μM”, the fold induction at 2.5 µM came to 5.5. Moreover, the fold induction at 5 µM (5.0 μM) came out at 9. Moreover, under “10 μM”, the fold induction at 10 µM amounted to 12.2. For the setting “20 μM”, the fold induction at 20 µM came to 10.4.

Consider `Nc1ccccc1NC(=O)c1ccc(CN2Cc3c(cccc3-c3ccc(C(F)(F)F)cc3)C2=O)cc1` [Example 13, N-(2-aminophenyl)-4-((4-(4-(trifluoromethyl)phenyl)-1-oxoisoindolin-2-yl)methyl)benzamide], for which the fold induction at 2.5 µM (2.5 μM) turned out to be 7.9. Also, the fold induction at 5 µM (5.0 μM) stood at 8. The fold induction at 10 µM (10 μM) came to 9.3. Further, the fold induction at 20 µM (20 μM) is 7.2.

Regarding `Nc1ccccc1NC(=O)c1ccc(CN2Cc3c(cccc3-c3cccnc3)C2=O)cc1` [Example 14, N-(2-aminophenyl)-4-((1-oxo-4-(pyridin-3-yl)isoindolin-2-yl)methyl)benzamide], the fold induction at 2.5 µM (2.5 μM) amounted to 12. The fold induction at 5 µM (5.0 μM) was found to be 15.7. Further, the fold induction at 10 µM (10 μM) amounted to 15.4. Moreover, under “20 μM”, the fold induction at 20 µM came out at 16.9.

Turning to `COc1ccc(-c2cccc3c2CN(Cc2ccc(C(=O)Nc4ccccc4N)cc2)C3=O)cc1` [Example 15, N-(2-aminophenyl)-4-((4-(4-methoxyphenyl)-1-oxoisoindolin-2-yl)methyl)benzamide], the fold induction at 2.5 µM (2.5 μM) turned out to be 7.4. Further, the fold induction at 5 µM (5.0 μM) is 10.4. Further, the fold induction at 10 µM (10 μM) worked out at 12. In addition, the fold induction at 20 µM (20 μM) was determined as 14.

With `COc1ccc(-c2cccc3c2CN(Cc2ccc(C(=O)Nc4ccccc4N)cc2)C3=O)cc1OC` [Example 16, N-(2-aminophenyl)-4-((4-(3,4-dimethoxyphenyl)-1-oxoisoindolin-2-yl)methyl)benzamide], the fold induction at 2.5 µM (2.5 μM) turned out to be 12.2. Further, the fold induction at 5 µM (5.0 μM) worked out at 12.3. The fold induction at 10 µM (10 μM) worked out at 8.5. Where the note is “20 μM”, the fold induction at 20 µM was 9.2.

As for `Nc1ccccc1NC(=O)c1ccc(CN2Cc3c(cccc3-c3cc(F)cc(F)c3)C2=O)cc1` [Example 17, N-(2-aminophenyl)-4-((4-(3,5-difluorophenyl)-1-oxoisoindolin-2-yl)methyl)benzamide], under “2.5 μM”, the fold induction at 2.5 µM turned out to be 11.2. Moreover, under “5.0 μM”, the fold induction at 5 µM is 14.7. Further, the fold induction at 10 µM (10 μM) turned out to be 16.3. The fold induction at 20 µM (20 μM) amounted to 15.8.

With `Nc1cccc(-c2cccc3c2CN(Cc2ccc(C(=O)Nc4ccccc4N)cc2)C3=O)c1` [Example 18, N-(2-aminophenyl)-4-((4-(3-aminophenyl)-1-oxoisoindolin-2-yl)methyl)benzamide], the fold induction at 2.5 µM (2.5 μM) was determined as 15.3. For the same molecule, the fold induction at 5 µM (5.0 μM) is 16.2. In addition, for the setting “10 μM”, the fold induction at 10 µM was 20.2. For the setting “20 μM”, the fold induction at 20 µM was found to be 18.5.

Regarding `Nc1ccccc1NC(=O)c1ccc(CN2Cc3c(cccc3-c3ccc4c(c3)OCO4)C2=O)cc1` [Example 19, N-(2-aminophenyl)-4-((4-(benzo[d][1,3]dioxol-6-yl)-1-oxoisoindolin-2-yl)methyl)benzamide], the fold induction at 2.5 µM (2.5 μM) was determined as 10.8. For the same molecule, the fold induction at 5 µM (5.0 μM) was 9.9. The fold induction at 10 µM (10 μM) came out at 11.7. Further, the fold induction at 20 µM (20 μM) turned out to be 14.

With `N#Cc1ccc(-c2cccc3c2CN(Cc2ccc(C(=O)Nc4ccccc4N)cc2)C3=O)cc1` [Example 20, N-(2-aminophenyl)-4-[4-(4-cyanophenyl)-1-oxo-2,3-dihydro-1H-isoindol-2-yl]methylbenzamide], the fold induction at 2.5 µM (2.5 μM) came to 16.2. The fold induction at 5 µM (5.0 μM) came out at 19.4. Besides, the fold induction at 10 µM (10 μM) was determined as 19.3. Further, the fold induction at 20 µM (20 μM) amounted to 16.8.

Regarding `Nc1ccccc1NC(=O)c1ccc(CN2Cc3c(cccc3-c3ccc4ccccc4c3)C2=O)cc1` [Example 21, N-(2-aminophenyl)-4-((4-(naphthalen-2-yl)-1-oxoisoindolin-2-yl)methyl)benzamide], the fold induction at 2.5 µM (2.5 μM) worked out at 6.4. In addition, where the note is “5.0 μM”, the fold induction at 5 µM worked out at 8.7. Further, the fold induction at 10 µM (10 μM) was found to be 11.6. The fold induction at 20 µM (20 μM) was determined as 11.7.

With `COc1ccc(-c2cccc3c2CN(Cc2ccc(C(=O)Nc4ccccc4N)cc2)C3=O)cn1` [Example 22, N-(2-aminophenyl)-4-((4-(6-methoxypyridin-3-yl)-1-oxoisoindolin-2-yl)methyl)benzamide], the fold induction at 2.5 µM (2.5 μM) came out at 12.4. The fold induction at 5 µM (5.0 μM) was 9.5. Moreover, where the note is “10 μM”, the fold induction at 10 µM came to 10.2. Besides, the fold induction at 20 µM (20 μM) turned out to be 10.3.
